Columns and labels:
[1] = target: Serine/threonine-protein kinase pim-3 (Homo sapiens) (UniProt Q86V86)
[2] = target: Calcium/calmodulin-dependent protein kinase type 1G (Homo sapiens) (UniProt Q96NX5)
[3] = target: Cyclin-dependent kinase-like 1 (Homo sapiens) (UniProt Q00532)
[4] = target: Serine/threonine-protein kinase pim-1 (Homo sapiens) (UniProt P11309)
[5] = target: T1, Calcium/calmodulin-dependent protein kinase type IV (Homo sapiens) (UniProt Q16566)
T1 sequence (whole entry): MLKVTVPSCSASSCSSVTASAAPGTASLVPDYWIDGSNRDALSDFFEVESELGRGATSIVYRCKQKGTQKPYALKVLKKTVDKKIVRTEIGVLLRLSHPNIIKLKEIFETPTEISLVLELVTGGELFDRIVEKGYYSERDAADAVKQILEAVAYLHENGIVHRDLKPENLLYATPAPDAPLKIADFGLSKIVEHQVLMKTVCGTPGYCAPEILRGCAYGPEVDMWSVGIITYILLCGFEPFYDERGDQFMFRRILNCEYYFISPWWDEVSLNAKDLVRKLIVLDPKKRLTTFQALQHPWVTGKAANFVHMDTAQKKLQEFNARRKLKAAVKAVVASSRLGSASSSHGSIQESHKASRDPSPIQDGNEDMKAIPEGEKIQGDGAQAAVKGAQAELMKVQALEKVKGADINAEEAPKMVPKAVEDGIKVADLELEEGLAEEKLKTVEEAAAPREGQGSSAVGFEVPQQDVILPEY

[6] = target: Serine/threonine-protein kinase 26 (Homo sapiens) (UniProt Q9P289)
[7] = target: Serine/threonine-protein kinase pim-2 (Homo sapiens, UniProt Q9P1W9)
[8] = target: Serine/threonine-protein kinase PLK1 (Homo sapiens) (UniProt P53350)
[9] = target: Cyclin-dependent kinase 16 (Homo sapiens) (UniProt Q00536)
[10] = target: Mitogen-activated protein kinase 11 (Homo sapiens, UniProt Q15759)
[11] = target: Serine/threonine-protein kinase PAK 4 (Homo sapiens) (UniProt O96013)
[12] = target: Tyrosine-protein kinase JAK1 (Homo sapiens) (UniProt P23458)
[13] = target: T2, Serine/threonine-protein kinase Nek2 (Homo sapiens) (UniProt P51955)
T2 sequence (whole entry): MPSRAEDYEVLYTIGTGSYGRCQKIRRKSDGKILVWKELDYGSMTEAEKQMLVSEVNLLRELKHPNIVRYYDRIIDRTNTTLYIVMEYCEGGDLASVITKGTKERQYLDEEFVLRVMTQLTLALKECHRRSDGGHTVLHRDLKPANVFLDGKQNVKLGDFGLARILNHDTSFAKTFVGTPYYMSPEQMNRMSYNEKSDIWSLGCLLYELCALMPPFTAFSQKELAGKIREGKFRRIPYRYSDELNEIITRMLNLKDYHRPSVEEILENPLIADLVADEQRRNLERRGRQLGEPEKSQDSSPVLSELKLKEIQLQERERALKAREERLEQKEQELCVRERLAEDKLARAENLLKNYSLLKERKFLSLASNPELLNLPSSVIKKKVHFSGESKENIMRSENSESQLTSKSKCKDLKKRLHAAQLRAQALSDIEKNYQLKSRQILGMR

[14] = target: STE20-like serine/threonine-protein kinase (Homo sapiens) (UniProt Q9H2G2)
[15] = target: Ribosomal protein S6 kinase alpha-3 (Homo sapiens) (UniProt P51812)
[16] = target: Serine/threonine-protein kinase 16 (Homo sapiens) (UniProt O75716)
[17] = target: T3, Serine/threonine-protein kinase 4 (Homo sapiens) (UniProt Q13043)
T3 sequence (whole entry): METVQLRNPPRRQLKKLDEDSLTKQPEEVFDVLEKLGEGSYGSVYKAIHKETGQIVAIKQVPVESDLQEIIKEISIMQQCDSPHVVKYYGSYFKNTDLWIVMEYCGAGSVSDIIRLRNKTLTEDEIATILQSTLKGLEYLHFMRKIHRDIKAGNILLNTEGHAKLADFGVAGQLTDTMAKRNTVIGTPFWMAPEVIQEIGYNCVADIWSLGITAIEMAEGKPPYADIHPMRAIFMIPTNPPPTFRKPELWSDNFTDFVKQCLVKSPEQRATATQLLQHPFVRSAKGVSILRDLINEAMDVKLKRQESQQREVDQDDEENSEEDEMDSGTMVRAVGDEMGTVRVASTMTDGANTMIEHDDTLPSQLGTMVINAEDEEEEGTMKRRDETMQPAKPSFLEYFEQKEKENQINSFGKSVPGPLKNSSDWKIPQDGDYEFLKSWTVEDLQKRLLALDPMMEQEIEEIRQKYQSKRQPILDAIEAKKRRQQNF

[18] = target: Serine/threonine-protein kinase 10 (Homo sapiens) (UniProt O94804)
[19] = target: Serine/threonine-protein kinase VRK2 (Homo sapiens) (UniProt Q86Y07)

Serine/threonine-protein kinase PLK1 (Homo sapiens), sequence (P53350 whole entry): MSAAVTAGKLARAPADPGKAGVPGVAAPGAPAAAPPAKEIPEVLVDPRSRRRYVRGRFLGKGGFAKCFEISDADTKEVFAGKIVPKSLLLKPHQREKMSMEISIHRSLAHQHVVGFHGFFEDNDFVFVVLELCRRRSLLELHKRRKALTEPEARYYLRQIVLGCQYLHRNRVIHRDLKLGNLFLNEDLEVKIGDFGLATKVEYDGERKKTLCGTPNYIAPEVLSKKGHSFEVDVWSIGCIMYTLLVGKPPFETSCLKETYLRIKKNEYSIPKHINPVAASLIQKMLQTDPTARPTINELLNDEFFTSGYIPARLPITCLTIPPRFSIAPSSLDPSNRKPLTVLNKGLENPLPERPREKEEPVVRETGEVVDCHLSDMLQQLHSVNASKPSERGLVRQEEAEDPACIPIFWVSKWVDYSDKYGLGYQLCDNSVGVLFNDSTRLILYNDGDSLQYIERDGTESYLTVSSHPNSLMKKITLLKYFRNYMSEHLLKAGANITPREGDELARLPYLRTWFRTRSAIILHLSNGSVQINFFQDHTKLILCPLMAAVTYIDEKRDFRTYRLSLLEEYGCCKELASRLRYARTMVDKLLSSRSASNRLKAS
Serine/threonine-protein kinase pim-1 (Homo sapiens), sequence (P11309 whole entry, looked up): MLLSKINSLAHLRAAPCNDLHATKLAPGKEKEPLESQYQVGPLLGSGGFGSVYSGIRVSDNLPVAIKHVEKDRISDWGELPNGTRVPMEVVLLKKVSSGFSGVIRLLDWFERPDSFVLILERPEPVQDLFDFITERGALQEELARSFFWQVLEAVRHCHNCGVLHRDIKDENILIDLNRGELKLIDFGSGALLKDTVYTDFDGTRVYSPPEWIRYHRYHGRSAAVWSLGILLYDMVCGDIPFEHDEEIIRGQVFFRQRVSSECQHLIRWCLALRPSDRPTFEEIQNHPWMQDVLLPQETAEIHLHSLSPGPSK
Serine/threonine-protein kinase 26 (Homo sapiens), sequence (Q9P289 2-416 limits assumed): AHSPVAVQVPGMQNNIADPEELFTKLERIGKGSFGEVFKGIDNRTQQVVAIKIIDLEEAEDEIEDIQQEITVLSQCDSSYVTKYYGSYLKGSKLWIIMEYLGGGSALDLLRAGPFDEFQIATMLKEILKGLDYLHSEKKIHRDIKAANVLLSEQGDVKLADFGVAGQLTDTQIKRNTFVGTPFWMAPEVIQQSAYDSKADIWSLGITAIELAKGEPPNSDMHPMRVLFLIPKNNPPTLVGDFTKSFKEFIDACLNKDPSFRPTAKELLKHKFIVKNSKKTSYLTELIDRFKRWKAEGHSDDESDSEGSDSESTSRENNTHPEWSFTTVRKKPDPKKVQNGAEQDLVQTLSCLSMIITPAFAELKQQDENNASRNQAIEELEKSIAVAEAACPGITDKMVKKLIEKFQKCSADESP
Cyclin-dependent kinase-like 1 (Homo sapiens), sequence (Q00532 whole entry): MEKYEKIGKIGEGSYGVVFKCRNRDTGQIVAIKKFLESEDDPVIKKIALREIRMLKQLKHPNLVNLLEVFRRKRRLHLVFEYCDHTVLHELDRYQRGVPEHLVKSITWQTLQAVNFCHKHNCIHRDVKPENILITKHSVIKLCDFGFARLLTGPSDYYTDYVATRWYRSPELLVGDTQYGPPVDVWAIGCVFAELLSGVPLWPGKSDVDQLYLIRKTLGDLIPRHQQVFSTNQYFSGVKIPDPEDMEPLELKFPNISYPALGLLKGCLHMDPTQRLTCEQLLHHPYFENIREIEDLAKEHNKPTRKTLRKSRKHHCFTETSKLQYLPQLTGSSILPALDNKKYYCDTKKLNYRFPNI
Serine/threonine-protein kinase PAK 4 (Homo sapiens), sequence (O96013 whole entry, looked up): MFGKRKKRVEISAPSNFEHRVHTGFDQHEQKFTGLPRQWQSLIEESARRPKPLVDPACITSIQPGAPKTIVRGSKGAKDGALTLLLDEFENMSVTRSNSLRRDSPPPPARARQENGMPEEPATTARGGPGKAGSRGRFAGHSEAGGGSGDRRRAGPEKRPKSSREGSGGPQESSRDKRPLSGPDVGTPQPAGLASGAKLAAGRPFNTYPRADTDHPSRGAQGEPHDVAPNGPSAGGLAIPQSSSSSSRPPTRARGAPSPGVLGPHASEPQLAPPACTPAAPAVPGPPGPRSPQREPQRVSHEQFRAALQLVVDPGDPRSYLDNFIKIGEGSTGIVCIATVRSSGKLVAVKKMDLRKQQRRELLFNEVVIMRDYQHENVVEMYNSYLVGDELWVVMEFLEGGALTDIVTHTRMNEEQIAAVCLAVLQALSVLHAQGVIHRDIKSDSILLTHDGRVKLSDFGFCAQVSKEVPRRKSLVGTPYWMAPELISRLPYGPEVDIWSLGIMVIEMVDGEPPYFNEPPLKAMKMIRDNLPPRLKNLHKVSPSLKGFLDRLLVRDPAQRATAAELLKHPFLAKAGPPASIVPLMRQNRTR
Cyclin-dependent kinase 16 (Homo sapiens), sequence (Q00536 whole entry): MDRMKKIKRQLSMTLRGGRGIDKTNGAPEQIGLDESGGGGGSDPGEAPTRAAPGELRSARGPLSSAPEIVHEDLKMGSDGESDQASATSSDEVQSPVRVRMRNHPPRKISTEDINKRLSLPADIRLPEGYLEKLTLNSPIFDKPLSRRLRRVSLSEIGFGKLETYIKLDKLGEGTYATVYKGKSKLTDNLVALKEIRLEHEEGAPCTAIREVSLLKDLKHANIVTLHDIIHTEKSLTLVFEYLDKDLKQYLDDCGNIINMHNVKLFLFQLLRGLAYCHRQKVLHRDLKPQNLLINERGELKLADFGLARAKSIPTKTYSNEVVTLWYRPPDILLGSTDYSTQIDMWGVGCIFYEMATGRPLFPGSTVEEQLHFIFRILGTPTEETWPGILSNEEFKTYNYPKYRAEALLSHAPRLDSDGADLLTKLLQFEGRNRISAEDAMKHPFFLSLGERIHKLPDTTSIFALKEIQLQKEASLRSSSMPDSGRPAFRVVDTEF
Mitogen-activated protein kinase 11, sequence (Q15759 whole entry): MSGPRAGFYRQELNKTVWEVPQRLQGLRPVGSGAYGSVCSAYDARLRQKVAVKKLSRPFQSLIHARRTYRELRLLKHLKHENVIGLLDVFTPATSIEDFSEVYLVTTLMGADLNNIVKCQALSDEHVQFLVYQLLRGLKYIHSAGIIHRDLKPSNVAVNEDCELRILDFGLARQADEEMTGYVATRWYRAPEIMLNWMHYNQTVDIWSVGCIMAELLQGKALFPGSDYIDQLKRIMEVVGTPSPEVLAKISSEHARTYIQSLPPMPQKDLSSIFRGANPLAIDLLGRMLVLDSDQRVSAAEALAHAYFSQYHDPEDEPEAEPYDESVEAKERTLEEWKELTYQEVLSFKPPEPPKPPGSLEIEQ
Tyrosine-protein kinase JAK1 (Homo sapiens), sequence (P23458 whole entry): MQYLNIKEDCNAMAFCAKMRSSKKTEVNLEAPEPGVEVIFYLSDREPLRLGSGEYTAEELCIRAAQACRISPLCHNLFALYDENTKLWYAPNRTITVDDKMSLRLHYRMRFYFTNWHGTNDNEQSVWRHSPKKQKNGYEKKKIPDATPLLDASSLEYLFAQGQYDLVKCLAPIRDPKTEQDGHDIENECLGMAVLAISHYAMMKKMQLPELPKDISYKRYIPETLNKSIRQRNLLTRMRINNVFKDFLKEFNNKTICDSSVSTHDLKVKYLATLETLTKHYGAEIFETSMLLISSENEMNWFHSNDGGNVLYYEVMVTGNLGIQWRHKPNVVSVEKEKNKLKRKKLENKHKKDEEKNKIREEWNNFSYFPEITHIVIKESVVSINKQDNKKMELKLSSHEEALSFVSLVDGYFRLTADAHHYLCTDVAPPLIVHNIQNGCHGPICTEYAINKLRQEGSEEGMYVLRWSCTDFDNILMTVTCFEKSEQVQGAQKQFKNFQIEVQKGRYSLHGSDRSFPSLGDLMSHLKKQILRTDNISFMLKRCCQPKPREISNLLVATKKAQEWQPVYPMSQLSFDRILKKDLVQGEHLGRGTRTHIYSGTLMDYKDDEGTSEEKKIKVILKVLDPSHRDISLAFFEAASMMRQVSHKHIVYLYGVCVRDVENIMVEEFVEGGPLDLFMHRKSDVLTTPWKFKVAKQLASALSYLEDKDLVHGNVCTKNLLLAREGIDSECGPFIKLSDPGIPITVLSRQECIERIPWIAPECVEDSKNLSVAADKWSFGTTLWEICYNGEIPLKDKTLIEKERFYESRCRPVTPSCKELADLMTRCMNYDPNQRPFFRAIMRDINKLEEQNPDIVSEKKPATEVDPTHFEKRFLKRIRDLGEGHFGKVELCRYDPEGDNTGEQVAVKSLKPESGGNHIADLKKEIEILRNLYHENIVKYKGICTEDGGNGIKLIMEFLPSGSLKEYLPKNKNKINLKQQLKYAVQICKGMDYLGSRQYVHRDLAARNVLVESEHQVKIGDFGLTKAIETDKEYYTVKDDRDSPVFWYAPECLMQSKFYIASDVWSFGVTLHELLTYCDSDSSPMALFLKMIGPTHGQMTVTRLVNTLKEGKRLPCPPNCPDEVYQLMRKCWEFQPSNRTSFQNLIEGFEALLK
Serine/threonine-protein kinase 16 (Homo sapiens), sequence (O75716 whole entry): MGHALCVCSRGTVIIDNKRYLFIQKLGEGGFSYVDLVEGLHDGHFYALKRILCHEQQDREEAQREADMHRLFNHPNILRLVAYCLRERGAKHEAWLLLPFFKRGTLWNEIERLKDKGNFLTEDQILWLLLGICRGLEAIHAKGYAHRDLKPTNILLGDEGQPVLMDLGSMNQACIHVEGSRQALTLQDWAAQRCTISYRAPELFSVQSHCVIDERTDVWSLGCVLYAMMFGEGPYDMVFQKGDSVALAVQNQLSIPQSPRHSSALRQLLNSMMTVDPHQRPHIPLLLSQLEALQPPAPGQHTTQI

ΔTm [1] | ΔTm [2] | ΔTm [3] | ΔTm [4] | ΔTm [5] | ΔTm [6] | ΔTm [7] | ΔTm [8] | ΔTm [9] | ΔTm [10] | ΔTm [11] | ΔTm [12] | ΔTm [13] | ΔTm [14] | ΔTm [15] | ΔTm [16] | ΔTm [17] | ΔTm [18] | ΔTm [19] | SMILES
-0.2 °C | 0.5 °C | 0.6 °C | 0.3 °C | 0.2 °C | -0.4 °C | 0 °C | 2.4 °C | -0.4 °C | 0.4 °C | 1.6 °C | 3.8 °C | 0.1 °C |  |  |  |  |  |  | Cc1nc(Nc2ncc(C(=O)Nc3c(C)cccc3Cl)s2)cc(N2CCN(CCO)CC2)n1
1.2 °C | 0.1 °C | 0.2 °C | 1.1 °C | 0.7 °C | 1 °C | 0.6 °C | -0.3 °C | 0.2 °C | 4.5 °C | -0.1 °C | 0.3 °C | -0.2 °C | 0.7 °C | 1.7 °C | 0 °C | 0.4 °C | -0.2 °C |  | Nc1n[nH]c2nnc(-c3c(-c4ccccc4)nn4ccccc34)cc12
-0.4 °C | 0.5 °C | 0.4 °C | -0.2 °C | 1.9 °C | -0.6 °C | -0.3 °C | 0 °C | 0.2 °C | 0.5 °C | -0.1 °C | 1.3 °C | 0.6 °C |  |  |  |  |  |  | Clc1ccc(Nc2nnc(Cc3ccncc3)c3ccccc23)cc1
3.4 °C | 0.5 °C | 0.2 °C | 3.1 °C | 1.1 °C | 5.7 °C | 8.2 °C | -0.7 °C | 1.9 °C | 0.2 °C | 3.7 °C | 4.3 °C | 0.9 °C | 8.4 °C | 4.8 °C | 1.7 °C | -0.4 °C | 6.3 °C |  | Cn1cc(/C=C2/C(=O)Nc3ccc(S(N)(=O)=O)cc32)c2ccccc21
0 °C | -0.2 °C | -0.2 °C | 0 °C | 0 °C | 0.9 °C | 0.2 °C | -1 °C | 0.1 °C | -0.1 °C | -0.1 °C | 0.3 °C | -0.1 °C | 0.1 °C | -0.2 °C | 0 °C | 0.2 °C | -0.5 °C |  | COc1ccc(COc2ccc(Cc3cnc(N)nc3N)cc2OC)cc1
2 °C |  | -0.2 °C | 0 °C | 0 °C |  | 0.6 °C | 1 °C | -0.6 °C | 0.8 °C | 1 °C | 2.1 °C | 0.2 °C | 3.2 °C |  | 0.4 °C | 1.6 °C | 4.2 °C | 0.9 °C | COc1cc2ncnc(Nc3cccc(O)c3)c2cc1OC
7.1 °C |  | 0.5 °C | 2.3 °C | 6 °C | 4.7 °C | 0 °C | 1.5 °C |  | 0.1 °C | 3.3 °C | 5.5 °C | -0.4 °C | 6.5 °C | 8.6 °C | 3.3 °C | 0.5 °C | 11.3 °C |  | CCN(CC)CCNC(=O)c1c(C)[nH]c(/C=C2\C(=O)Nc3ccc(F)cc32)c1C

SMILES | ΔTm [1] | ΔTm [2] | ΔTm [3] | ΔTm [4] | ΔTm [5] | ΔTm [6] | ΔTm [7] | ΔTm [8] | ΔTm [9] | ΔTm [10] | ΔTm [11] | ΔTm [12] | ΔTm [13] | ΔTm [14] | ΔTm [15] | ΔTm [16] | ΔTm [17] | ΔTm [18] | ΔTm [19]
CN1CCC(Nc2ncc3ncnc(Nc4ccc(F)c(Cl)c4)c3n2)CC1 [FALNIDAMOL] | 0.5 °C | 0.5 °C | 3.2 °C | 5.2 °C | 0.1 °C | 6.7 °C | 0.1 °C | 1.1 °C | 7.7 °C | 0 °C | 1.5 °C | 0.5 °C | 2.4 °C |  |  |  |  |  | 

From ChEMBL document CHEMBL1145498, “A systematic interaction map of validated kinase inhibitors with Ser/Thr kinases” (Proc Natl Acad Sci U S A, 2007)
